Structures can show the parent of a compound that is named as a salt.
Key:
GPIIb-IIIa = target: T1, GPIIb-IIIa (Homo sapiens, UniProt P05106+P08514); experiment: ELISA IIb-IIIa assay (fibrinogen binding to immobilized GPIIb-IIIa); conditions: purified platelet GPIIb-IIIa receptor coated on ELISA plates; biotin-labeled fibrinogen 10 nM, 3 hours at 25° C.
T1 construct: Purified platelet GPIIb-IIIa receptor was prepared as described by Fitzgerald; from tissue; host or cells: platelets
T1 sequence (P08514 32-887 limits assumed): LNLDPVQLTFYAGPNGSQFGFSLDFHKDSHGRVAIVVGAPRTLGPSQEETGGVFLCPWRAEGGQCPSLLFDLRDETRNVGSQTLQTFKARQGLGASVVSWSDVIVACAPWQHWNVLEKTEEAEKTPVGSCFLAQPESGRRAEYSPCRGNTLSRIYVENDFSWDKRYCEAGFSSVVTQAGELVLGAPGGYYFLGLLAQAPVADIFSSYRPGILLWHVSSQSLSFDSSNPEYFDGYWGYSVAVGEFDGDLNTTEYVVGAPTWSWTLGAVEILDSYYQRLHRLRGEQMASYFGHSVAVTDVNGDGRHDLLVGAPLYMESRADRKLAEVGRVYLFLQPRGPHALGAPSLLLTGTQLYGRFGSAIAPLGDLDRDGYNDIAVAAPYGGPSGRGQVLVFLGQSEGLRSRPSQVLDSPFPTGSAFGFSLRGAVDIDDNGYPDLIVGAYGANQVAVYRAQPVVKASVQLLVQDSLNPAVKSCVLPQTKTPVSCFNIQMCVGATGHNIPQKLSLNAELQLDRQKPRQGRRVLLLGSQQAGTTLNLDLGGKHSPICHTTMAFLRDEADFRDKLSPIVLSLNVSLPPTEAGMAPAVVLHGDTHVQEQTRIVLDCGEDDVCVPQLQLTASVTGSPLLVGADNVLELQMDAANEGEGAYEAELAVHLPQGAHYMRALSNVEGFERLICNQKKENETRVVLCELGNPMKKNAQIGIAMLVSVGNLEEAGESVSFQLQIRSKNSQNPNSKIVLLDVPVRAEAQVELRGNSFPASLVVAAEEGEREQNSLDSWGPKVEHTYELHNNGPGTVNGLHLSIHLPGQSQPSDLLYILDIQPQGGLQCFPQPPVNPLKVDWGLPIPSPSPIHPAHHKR
T1 sequence (P05106 27-788): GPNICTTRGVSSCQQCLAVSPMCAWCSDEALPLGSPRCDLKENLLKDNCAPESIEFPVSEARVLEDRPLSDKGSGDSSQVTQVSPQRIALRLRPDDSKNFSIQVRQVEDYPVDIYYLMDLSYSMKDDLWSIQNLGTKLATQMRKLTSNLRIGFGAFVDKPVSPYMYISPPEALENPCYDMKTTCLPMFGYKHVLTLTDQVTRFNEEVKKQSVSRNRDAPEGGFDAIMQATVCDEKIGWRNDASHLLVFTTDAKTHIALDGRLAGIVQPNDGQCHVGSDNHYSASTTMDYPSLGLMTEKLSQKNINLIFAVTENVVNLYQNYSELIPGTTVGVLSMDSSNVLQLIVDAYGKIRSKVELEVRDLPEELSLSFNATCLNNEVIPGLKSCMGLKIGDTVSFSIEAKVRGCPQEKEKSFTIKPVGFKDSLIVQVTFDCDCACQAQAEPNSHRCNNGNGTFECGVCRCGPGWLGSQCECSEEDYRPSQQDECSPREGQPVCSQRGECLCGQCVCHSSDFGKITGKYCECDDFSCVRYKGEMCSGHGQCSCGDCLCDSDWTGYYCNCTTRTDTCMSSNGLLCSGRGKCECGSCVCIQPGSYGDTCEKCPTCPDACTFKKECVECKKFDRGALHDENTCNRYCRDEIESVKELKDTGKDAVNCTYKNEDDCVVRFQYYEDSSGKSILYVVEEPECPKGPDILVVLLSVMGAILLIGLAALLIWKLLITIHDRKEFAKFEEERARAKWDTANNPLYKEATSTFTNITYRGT
Experimental: In the following assay, GPIIb-IIIa is prepared in purified form, by a method such as described by Fitzgerald, L. A., et al., Anal Biochem (1985) 151:169-177, (the disclosure of which is incorporated herein by reference). GPIIb-IIIa is coated onto microtiter plates. The coated support is then contacted with fibrinogen and with the test material (e.g., compounds of Formula I) and incubated for a sufficient time to permit maximal binding of fibrinogen to the immobilized GPIIb-IIIa. Fibrinogen is typically provided at a concentration of about 5-50 nM and the test material can, if desired, be added at a series of dilution. Typical incubations are 2 to 4 hours at 25° C., the time and temperature being interdependent.
After incubation, the solution containing the fibrinogen and test material is removed and the level of binding of fibrinogen measured by quantitating bound fibrinogen to GPIIb-IIIa. Any suitable means of detection may be used, but it is convenient to employ labeled fibrinogen, for example using biotinylated labels. Such methods are well known in the art.
Purified platelet GPIIb-IIIa receptor was prepared as described by Fitzgerald, L. A., et al., Anal Biochem (1985) 151:169-177 (1985). Vitronectin receptor was prepared as described by Smith, J. W., J. Biol Chem (1988) 263:18726-18731. After purification, the receptors were stored in 0.1% Triton X-100 at 0.1-1.0 mg/ml.
The receptors were coated to the wells of 96-well flat-bottom ELISA plates (Linbro EIA-Plus microtiter plate, Flow Laboratories) after diluting 1:200 with a solution of 20 mM Tris-HCl, 150 mM NaCl, 1 mM CaCl2, pH 7.4, to reduce the Triton X-100 concentration to below its critical micellar concentration and adding an aliquot of 100 ul to each well. The wells were all allowed to incubate overnight at 4° C., and then aspirated to dryness. Additional sites were blocked by the addition of bovine serum albumin (BSA) at 35 mg/ml in the above buffer for 2 hours at 30° C. to prevent nonspecific binding. The wells were then washed once with binding buffer ([…] Tris-HCl, 100 mM NaCl 2 mM CaCl2, 1 mg/ml BSA).
The corresponding ligands (fibrinogen, von Willebrand Factor, or vitronectin) were conjugated to biotin using commercially available reagents and standard protocols. The labeled ligands were added to the receptor-coated wells at final concentration of 10 nM (100 ul/well) and incubated for 3 hours at 25° C. in the presence or absence of the test samples. After incubation, the wells are aspirated to dryness and bound ligand is quantitated.
The bound protein is detected by the addition of antibiotin antibody conjugated to alkaline phosphatase followed by addition of substrate (p-nitrophenyl phosphate), and determination of the optical density of each well at […]. Decreased color development is observed in wells incubated with test samples which inhibit binding of ligand to receptor.

[1] = system: human platelet-rich plasma; experiment: Platelet aggregation assay (Aggregation-Human PRP/ADP); assay type: cell-based; conditions: 1 min; human platelet-rich plasma incubated with compound 1 minute at 37° C.; ADP-induced aggregation; read-out: Agg: Human PRP/ADP IC50uM
Experimental: Platelet-rich plasma was prepared from healthy human volunteers for use in determining inhibition of platelet aggregation by the compounds.
Platelet-rich plasma was prepared at room temperature by centrifugation of the citrated whole blood at 100×g for 12 minutes. The platelet rich plasma contained approximately 200-400,000 platelets/μl.
Platelet-poor plasma was prepared by centrifugation of citrated whole blood at 12,000×g for 2 minutes.
Platelet aggregation was assayed in a 4-channel platelet aggregation profiler (PAP-4, Biodata, Hatboro, Pa.) according to the manufacturers directions. Inhibition of platelet aggregation was studied by adding varying amounts of […] to stirred human platelet-rich plasma. Specifically, the human platelet-rich plasma was incubated with the compound being tested for 1 minute at 37° C. prior to the addition of a variety of aggregating agents most often ADP 5 μM, but also 1 μg/ml collagen, 1 μM U46619 and 0.3 μM platelet activating factor.

SMILES	IC50 (GPIIb-IIIa) [nM]	IC50 [1] [µM]
N=C(N)c1ccc(C(=O)Nc2ccc3c(c2)CCC(CC(=O)O)O3)cc1 (racemic) [Example 48, rac-(6-(N-(4-(Aminoiminomethyl)benzoyl)amino)-3,4-dihydro-2H-1-benzopyran-2-yl)acetic Acid]	4	0.066
COc1ccc(CCNC(=O)C(CC(=O)O)N2CCc3cc(OCc4ccc(C(=N)N)cc4)ccc3C2=O)cc1 (racemic) [Example 7, (+−)-6-[[4-(Aminoiminomethyl)phenyl]methoxy]-3,4-dihydro-1-oxo-beta-[[(4-methoxyphenyl Ethyl)amino]carbonyl]-2(1H)-isoquinoline Propanoic Acid Trifluoroacetate]	15	2
CCOCCCC(CC(=O)O)N1CCc2cc(OCCCC3CCNCC3)ccc2C1=O (stereo not drawn) [Example 22, 6-[4-(Piperidn-4-yl)propyloxy]-3,4-dihydro-1-oxo-B-(3-ethoxypropyl)-1-oxo-2(1H)-isoquinoline Propanoic Acid Trifluoroacetate]	200	2
N=C(N)c1ccc(COc2ccc3c(c2)CCC(CC(=O)O)C3)cc1 (racemic) [Example 20, (+−)-6-[[(4-Aminoimidomethyl)phenyl]methoxy]-1,2,3,4-tetrahydronapthylene-2-acetic Acid Trifluoroacetate]	300	20
N=C(N)c1ccc(C(=O)Nc2ccc3c(c2)OCC(OCC(=O)O)C3)cc1 (stereo not drawn) [Example 41]	46	0.3
CCOC(=O)CC1CCc2cc(NC(=O)c3ccc(C(=N)N(C)C)cc3)ccc2O1 (racemic) [Example 73, Hydrochloride]	> 10000	1.2
CCCCC(CC(=O)O)N1CCc2cc(OCc3ccc(C(=N)N)cc3)ccc2C1=O (racemic) [Example 11, (+−)-6-[[4-(Aminoiminomethyl)phenyl]methoxy]-b-butyl-3,4-dihydro-1-oxo-2(1H)-isoquinoline Propanoic Acid Trifluoroacetate]	40	0.6
N=C(N)c1ccc(CCc2ccc3c(c2)CCN(CC(=O)O)C3=O)cc1 [Example 3, 6-[2-[4-(Aminoiminomethyl)phenyl]ethyl]-3,4-dihydro-1-oxo-2(1H)-isoquinoline Acetic Acid Trifluoroacetate]	110	1
N=C(N)CCCCCOc1ccc2c(c1)CCC(CC(=O)O)O2 (racemic) [Example 55, rac-(6-(5-(Aminoiminomethyl)pentoxy)-3,4-dihydro-2H-1-benzopyran-2-yl)acetic Acid Trifluoroacetate]	3460	> 100
N=C(N)c1ccc(C#Cc2ccc3c(c2)CCN(CC(=O)O)C3=O)cc1 [Example 2, 6-[[4-(Aminoiminomethyl)phenyl]ethynyl]-3,4-dihydro-1-oxo-2(1H)-isoquinoline Acetic Acid Trifluoroacetate]	30	0.52
N=C(N)c1cccc(CCc2ccc3c(c2)CCN(CC(=O)O)C3=O)c1 [Example 18, 6-[2-[3-(Aminoiminomethyl)phenyl]ethyl]-3,4-dihydro-1-oxo-2(1H)-isoquinoline Acetic Acid Trifluoroacetate]	11000	> 100
CCOC(=O)CC1CCc2cc(NC(=O)c3ccc(C(=N)NC)cc3)ccc2O1 (racemic) [Example 57, Hydrochloride]	> 10000	0.66
N=C(N)c1ccc(CNC(=O)c2ccc3c(c2)CCN(CC(=O)O)C3=O)cc1 [Example 19, 6-[[(4-Aminoiminomethyl)phenyl]methylaminocarbonyl]-3,4-dihydro-1-oxo-2(1H)isoquinoline Acetic Acid Trifluoroacetate]	13000	> 100
N=C(N)c1ccc(C(=O)Nc2ccc3c(c2)CCC(CC(=O)O)C3=O)c(Cl)c1 (racemic) [Example 63, rac-(6-(N-(4-Aminoiminomethyl-2-chlorobenzoyl)amino)-1-oxo-1,2,3,4-tetrahydronaphthalen-2-yl)acetic Acid]	9.4	0.092
N=C(N)c1ccc(C(=O)Nc2ccc3c(c2)CCN(CC(=O)O)C3)cc1 [Example 36]	5	0.17
N=C(N)c1ccc(C(=O)Nc2ccc3c(c2)CCC(OCC(=O)O)C3)cc1 (stereo not drawn) [Example 29]	15	0.28
N=C(N)c1ccc(C(=O)Nc2ccc3c(c2)CCC(CC(=O)O)C3)cc1 (stereo not drawn) [Example 28]	5	0.19
CC1(CCC(=O)O)CCc2cc(NC(=O)c3ccc(C(=N)N)cc3)ccc2O1 (racemic) [Example 56, rac-3-(6-(N-(4-(Aminoiminomethyl)benzoyl)amino)-3,4-dihydro-2-methyl-2H-1-benzopyran-2-yl)propanoic Acid]	140	0.9
